From US8076452B2, “Streptavidin-binding peptide” (priority 2002, dated 2011)
Where two headings read alike, the source gives them in different places.

Experiments:
streptavidin [1] = molecular target: T1, streptavidin (Streptomyces avidinii, UniProt P22629); experiment: Dissociation constant measurement, BiacoreX, NTA sensor chip (first measurements); assay type: binding; settings: for Kd: FABP with N-terminal 15-aa peptide, C-terminal His6 on NTA chip
Text: Using standard methods for this technology, the FAB protein (fatty acid binding protein) (FABP) from bovine hearts was expressed in vitro in a cell-free protein biosynthesis by means of a coupled transcription/translation system. The expressed FAB protein had at the N terminus an additional streptavidin-binding peptide composed of 15 amino acids with different amino acid sequences as fusion partners.
Two binding peptides contain in their amino acid sequence the HPQ motif (motif 1 and 2) described in the prior art, and two of them contain the streptavidin-binding peptide according to SEQ ID NOS: 1-6 according to the invention (motif 3 and 4). In addition, the expressed proteins were provided at the C terminus with a “His-tag” consisting of 6 histidines. The proteins were purified by means of affinity chromatography via Ni2+IDA-agarose using standard methods. It can be seen that with equal length, binding peptides of a sequence according to the invention have a substantially lower dissociation constant than a binding peptide with HPQ motif.
The measurements of the dissociation constant were performed with a BiacoreX system and the sensor chip NTA of the company Biacore. The proteins generated during the expression described in Example 1 were investigated, i.e. FAB proteins, which had at the N terminus a peptide consisting of 15 amino acids as fusion partners and at the C terminus 6 histidines, which were needed for the immobilization on the sensor chip. The binding affinity of the proteins generated during the expression to streptavidin described in Example 1 was measured in the Biacore device according to manufacturer's instructions. The protein to be investigated is on the sensor chip, and a streptavidin solution having a defined concentration is sprayed in. The interaction (binding) between the two molecules is measured by the device and quantified as so-called resonance units (RU). For the measurement, the buffers specified by the manufacturer were used.

streptavidin [2] = molecular target: T1, streptavidin; experiment: Binding constants by surface plasmon resonance, BIAcore NTA chip, optimized measuring method; settings: peptide N-terminal of FABP, C-terminal Gly2-His8, 1,100 RU immobilized
Text: The information supplied by the substitution analysis was verified by determining the binding constants of different peptides by surface plasmon resonance spectroscopy using a BIAcore device. The measurements were made with the NTA sensor chip of the company BIAcore and by means of the fatty acid-binding protein from bovine hearts (FABP). The FABP served for the immobilization and presentation of the peptide. Further, it was intended to thus simulate the conditions occurring in an affinity chromatography, since the peptide is to be used in the future as an affinity peptide for the purification of proteins. In contrast to the first measurements, where the peptides to be verified replaced the four N terminal amino acids of the FABP, the arrangement of the peptides was this time also N terminal, but they were not part of the FABP. The His-tag necessary for the immobilization was also modified. It was located same as for the first measurements at the C terminus of the FABP, was however extended from six to eight histidines and further spaced by a linker consisting of two glycines from the FABP. Thereby, the immobilization of the ligands could distinctly be improved, and thus the drift of the base line resulting from the washing-off of the ligand could be minimized. For every measurement, an identical amount of the respective FABPs was immobilized, what corresponded to a rise of the base line by 1,100 resonance units (RU). As a reference was used the FABP with the His-tag, but without N terminal binding peptide.
The binding constants obtained with the optimized measuring method were the following: […]

streptavidin [3] = molecular target: T1, streptavidin; settings: prior art; read-out: dissociation constant Kd; cited from earlier work
streptavidin [4] = molecular target: T1, streptavidin; experiment: Substitution analysis by spot synthesis on cellulose membrane, peroxidase-labeled streptavidin, luminescence; assay type: binding; settings: peptide spots on cellulose membrane
Text: The binding peptide (FAx 3) with the sequence DVEAWLDERVPLVET [SEQ ID NO: 16] was subjected to a substitution analysis, and it was intended thereby to identify a possible minimum motif (=shortened peptide) and examine the effect of individual amino acid exchanges on the binding specificity. In a substitution analysis, peptides are synthesized by means of spot methods (Frank, R. 1992) on a cellulose membrane serving as a solid phase. Every position of the peptide comprising 15 amino acids was systematically replaced by the other 19 L amino acids.
The substitution analysis was incubated with a peroxidase-labeled streptavidin and developed with a luminescence substrate. Thereby it was possible to find out, how far the peptide can be shortened and which amino acids are “conserved” and thus not or only very poorly exchangeable. […] The substitution analysis also indicated positions, where the exchange of the original amino acid by another one could result in an improvement of the streptavidin binding.

streptavidin-Sepharose = streptavidin-Sepharose (Streptomyces avidinii, UniProt P22629); experiment: Purification of the FABP fusion protein via streptavidin-Sepharose affinity column
streptavidin-Sepharose, sequence (P22629 25-183): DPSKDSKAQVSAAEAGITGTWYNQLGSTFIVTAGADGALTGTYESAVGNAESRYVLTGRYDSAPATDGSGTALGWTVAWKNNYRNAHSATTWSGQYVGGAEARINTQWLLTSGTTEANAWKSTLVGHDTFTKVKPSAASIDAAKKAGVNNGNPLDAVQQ
Text: (§1) Using standard methods, the FAB protein having at the N terminus an additional peptide consisting of 15 amino acids with the amino acid sequence DVEAWLDERVPLVET [SEQ ID NO: 16] (motif 3) as fusion partners, is expressed in vitro in a cell-free protein biosynthesis by means of a coupled transcription/translation system. For purification of the overexpressed defined protein, the streptavidin was coupled to a solid phase. As a solid phase was used a Sepharose. The expressed FAB protein was then purified using standard methods via a column comprising streptavidin-Sepharose or StrepTactin-Sepharose. For the purification the following buffers were used: washing buffer (100 mM Tris-HCl (pH 8.0), 150 mM NaCl, 1 mM EDTA).
(§2) For the elution of streptavidin, the washing buffer contained 2 mM biotin, and for the elution of StrepTactin, the washing buffer contained 2.5 mM desthiobiotin.
(§3) The percentage distribution of the used defined protein on the various fractions of the affinity chromatography can be taken from Table 3. In Table 3, D represents the application of sample/passage, W washing fraction, and E elution fraction.

StrepTactin-Sepharose = StrepTactin-Sepharose (Streptomyces avidinii, UniProt P22629, E68V/S69T/V71R); experiment: Purification of the FABP fusion protein via StrepTactin-Sepharose affinity column
StrepTactin-Sepharose, sequence (P22629 38-163 E68V/S69T/V71R): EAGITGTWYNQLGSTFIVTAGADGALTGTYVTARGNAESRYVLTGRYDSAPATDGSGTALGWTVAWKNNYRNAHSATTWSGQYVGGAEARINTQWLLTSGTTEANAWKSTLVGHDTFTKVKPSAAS
Text: as §1, §2, §3

T1 sequence (P22629 25-183, species assumed): as the sequence (P22629 25-183) above

Substance: DLYDIDRNWVGHPQG [motif 1, D L Y D I D R N W V G H P Q G, reference compound]
- Kd (streptavidin [1]): 8000 nM
- resonance units (RU) (streptavidin [1]; Streptavidin conc. 500 nM): 62 RU
- resonance units (RU) (streptavidin [1]; Streptavidin conc. 1 μM): 123 RU
- resonance units (RU) (streptavidin [1]; Streptavidin conc. 2 μM): 233 RU
- resonance units (RU) (streptavidin [1]; Streptavidin conc. 4 μM): 407 RU
- resonance units (RU) (streptavidin [1]; Streptavidin conc. 8 μM): 621 RU
- resonance units (RU) (streptavidin [1]; Streptavidin conc. 16 μM): 779 RU
- resonance units (RU) (streptavidin [1]; Streptavidin conc. 32 μM): 955 RU

Substance: DVEAWLGERVPLVET
- Kd (streptavidin [2]; read-out: Kd): 4.2 ± 0.7 nM

Substance: DVEAWIADPAVHFTT [motif 4, D V E A W I A D P A V H F T T]
- Kd (streptavidin [1]): 200 nM
- resonance units (RU) (streptavidin [1]; Streptavidin conc. 30 nM): 68 RU
- resonance units (RU) (streptavidin [1]; Streptavidin conc. 60 nM): 171 RU
- resonance units (RU) (streptavidin [1]; Streptavidin conc. 125 nM): 280 RU
- resonance units (RU) (streptavidin [1]; Streptavidin conc. 250 nM): 384 RU
- resonance units (RU) (streptavidin [1]; Streptavidin conc. 500 nM): 478 RU
- resonance units (RU) (streptavidin [1]; Streptavidin conc. 1 μM): 560 RU
- resonance units (RU) (streptavidin [1]; Streptavidin conc. 2 μM): 644 RU

Substance: MDEKTTGWRGGIIVVEGLAGELEQLRARLEHHPQGQREP [SBP-tag]
- Kd (streptavidin [3]): 2.5 nM

Substance: DNYDADLAWDTHPQD [motif 2, D N Y D A D L A W D T H P Q D, reference compound]
- Kd (streptavidin [1]): 70000 nM
- resonance units (RU) (streptavidin [1]; Streptavidin conc. 3 μM): 64 RU
- resonance units (RU) (streptavidin [1]; Streptavidin conc. 6 μM): 98 RU
- resonance units (RU) (streptavidin [1]; Streptavidin conc. 15 μM): 201 RU
- resonance units (RU) (streptavidin [1]; Streptavidin conc. 30 μM): 337 RU
- resonance units (RU) (streptavidin [1]; Streptavidin conc. 60 μM): 536 RU

Substance: DVGAWLDER
- Kd (streptavidin [2]; read-out: Kd): 570 ± 90 nM

Substance: AWRHPQFGG [Strep-tag I]
- Kd (streptavidin [3]): 10000 to 37000 nM

Substance: DVEAWLGER
- Kd (streptavidin [2]; read-out: Kd): 17 ± 4 nM

Substance: WSHPQFEK [Strep-tag II]
- Kd (streptavidin [3]): 18000 to 72000 nM

Substance: DVEAWL
- streptavidin binding (streptavidin [4]): sufficient streptavidin binding

Substance: DVEAWFDER
- Kd (streptavidin [2]): not measurable

Substance: DVEAWRDER
- Kd (streptavidin [2]): not measurable

Substance: DVEAWLDAR
- Kd (streptavidin [2]; read-out: Kd): 160 ± 30 nM

Substance: DVDAWLDER
- Kd (streptavidin [2]; read-out: Kd): 940 ± 140 nM

Substance: DVEAWLGAR
- Kd (streptavidin [2]; read-out: Kd): 17 ± 4 nM

Substance: DVEAWLDER
- Kd (streptavidin [2]; read-out: Kd): 240 ± 40 nM
- streptavidin binding (streptavidin [4]): clearly better streptavidin binding

Substance: DVEAWLGARVPLVET
- Kd (streptavidin [2]; read-out: Kd): 4.1 ± 0.6 nM

Substance: DVEAWLDERVPLVET [motif 3, D V E A W L D E R V P L V E T]
- Kd (streptavidin [1]): 84 nM
- resonance units (RU) (streptavidin [1]; Streptavidin conc. 15 nM): 98 RU
- resonance units (RU) (streptavidin [1]; Streptavidin conc. 30 nM): 242 RU
- resonance units (RU) (streptavidin [1]; Streptavidin conc. 60 nM): 461 RU
- resonance units (RU) (streptavidin [1]; Streptavidin conc. 125 nM): 613 RU
- resonance units (RU) (streptavidin [1]; Streptavidin conc. 250 nM): 704 RU
- resonance units (RU) (streptavidin [1]; Streptavidin conc. 500 nM): 786 RU
- resonance units (RU) (streptavidin [1]; Streptavidin conc. 2 μM): 946 RU
- resonance units (RU) (streptavidin [1]; Streptavidin conc. 4 μM): 983 RU
- Kd (streptavidin [2]; read-out: Kd): 3.6 ± 0.6 nM
- percentage distribution of the protein, fraction D (streptavidin-Sepharose; application of sample/passage): 3.5%
- percentage distribution of the protein, fraction E1 (streptavidin-Sepharose; elution fraction 1, 2 mM biotin): 0.4%
- percentage distribution of the protein, fraction E2 (streptavidin-Sepharose; elution fraction 2, 2 mM biotin): 76.9%
- percentage distribution of the protein, fraction E3 (streptavidin-Sepharose; elution fraction 3, 2 mM biotin): 0.7%
- applied protein recovered for the eluate (streptavidin-Sepharose; streptavidin-Sepharose): 78%
- applied protein recovered from the column (streptavidin-Sepharose; streptavidin-Sepharose): 90%
- percentage distribution of the protein, Tot. (streptavidin-Sepharose; sum of all fractions): 89.6%
- percentage distribution of the protein, fraction W1 (streptavidin-Sepharose; washing fraction 1): 6.8%
- percentage distribution of the protein, fraction W2 (streptavidin-Sepharose; washing fraction 2): 1.0%
- percentage distribution of the protein, fraction W3 (streptavidin-Sepharose; washing fraction 3): 0.3%
- applied protein recovered for the eluate (StrepTactin-Sepharose; StrepTactin-Sepharose): 71%
- applied protein recovered from the column (StrepTactin-Sepharose; StrepTactin-Sepharose): 84%
- percentage distribution of the protein, fraction D (StrepTactin-Sepharose; application of sample/passage): 3.0%
- percentage distribution of the protein, fraction E1 (StrepTactin-Sepharose; elution fraction 1, 2.5 mM desthiobiotin): 0.9%
- percentage distribution of the protein, fraction E2 (StrepTactin-Sepharose; elution fraction 2, 2.5 mM desthiobiotin): 45.9%
- percentage distribution of the protein, fraction E3 (StrepTactin-Sepharose; elution fraction 3, 2.5 mM desthiobiotin): 23.2%
- percentage distribution of the protein, fraction E4 (StrepTactin-Sepharose; elution fraction 4, 2.5 mM desthiobiotin): 1.0%
- percentage distribution of the protein, fraction E5 (StrepTactin-Sepharose; elution fraction 5, 2.5 mM desthiobiotin): 0.3%
- percentage distribution of the protein, Tot. (StrepTactin-Sepharose; sum of all fractions): 84.4%
- percentage distribution of the protein, fraction W1 (StrepTactin-Sepharose; washing fraction 1): 7.4%
- percentage distribution of the protein, fraction W2 (StrepTactin-Sepharose; washing fraction 2): 1.8%
- percentage distribution of the protein, fraction W3 (StrepTactin-Sepharose; washing fraction 3): 0.9%
